Reference: patent US20120183536A1, “METHODS OF USING CORTICOTROPIN-RELEASING FACTOR FOR THE TREATMENT OF CANCER” (priority 2009, published 2012)
Where two headings read alike, the source gives them in different places.

What was measured:
[1] = system: U87 Fluc brain tumor
From the text: The results were obtained with SCID mice bearing brain tumors produced by injection with the human glioblastoma cell line U87 Flue. The U87 Flue cell line was created by stably transducing U87 cells with a lentiviral construct containing the luc gene.

[2] = system: Colo205 human colon tumor cells; test: Colo205 human colon tumor xenograft in nu/nu mice, tumor volume; format: in vivo
Method: In one study, 8-12 week old female nu/nu mice were injected with 1×10^6 Colo205 human colon tumor cells subcutaneously. Once tumors developed and reached an average size of 100-150 mg, mice received administration of: (1) saline (control) (twice daily, subcutaneous); (2) CRF (100 μg/kg) (twice daily, subcutaneous); (3) CRF (200 μg/kg) (twice daily, subcutaneous); (4) bevacizumab (Avastin®) (5 mg/kg) (twice weekly, intraperitoneal); or (5) CRF (200 μg/kg) (twice daily, subcutaneous) and bevacizumab (Avastin®) (5 mg/kg) (twice weekly, intraperitoneal) (FIG. 11A). Body weight and tumor volume were measured twice a week until the endpoint of the experiment, i.e., the earlier of either 60 days or a tumor volume of 1000 mm^3.

[3] = system: human Non-Small Cell Lung Carcinoma (NSCLC) tumor cell lines; test: human Non-Small Cell Lung Carcinoma xenograft in nu/nu mice, tumor volume; format: in vivo
Method: In a second study, 8-12 week old female nu/nu mice were injected with 1 mm^3 tumor fragments of human Non-Small Cell Lung Carcinoma (NSCLC) tumor cell lines subcutaneously. Once tumors developed and reached an average size of 80-120 mg, mice received administration of: (1) saline (control) (twice daily, subcutaneous); (2) CRF (100 μg/kg) (twice daily, subcutaneous); (3) CRF (200 μg/kg) (twice daily, subcutaneous); (4) bevacizumab (Avastin®) (5 mg/kg) (twice weekly, intraperitoneal); or (5) CRF (200 μg/kg) (twice daily, subcutaneous) and bevacizumab (Avastin®) (5 mg/kg) (twice weekly, intraperitoneal) (FIG. 12A). Body weight and tumor volume were measured twice a week until the endpoint of the experiment, i.e., the earlier of either 60 days or achieving a tumor weight of 2 g.).

[4] = system: MX-1 human breast carcinoma; test: MX-1 human breast carcinoma xenograft in nu/nu mice, tumor volume; format: in vivo
Method: In another study, 8-12 week old female nu/nu mice were injected with 1 mm^3 tumor fragments of MX-1 human breast carcinoma subcutaneously. Once tumors developed and reached an average size of 80-120 mg, mice received administration of: (1) saline (control) (twice daily, subcutaneous); (2) CRF (100 μg/kg) (twice daily, subcutaneous); (3) CRF (200 μg/kg) (twice daily, subcutaneous); (4) bevacizumab (Avastin®) (5 mg/kg) (twice weekly, intraperitoneal); or (5) CRF (200 μg/kg) (twice daily, subcutaneous) and bevacizumab (Avastin®) (5 mg/kg) (twice weekly, intraperitoneal) (FIG. 13A). Body weight and tumor volume were measured twice a week until the endpoint of the experiment, i.e., the earlier of either 60 days or achieving a tumor weight of 1.5 g.).

[5] = system: malignant brain tumor; test: Clinical study: patients with malignant brain tumor, tumor size by MRI and survival; format: in vivo, human
Method: Patients with malignant brain tumor were treated with 2 mg/day (1 mg dose, twice daily) of either human CRF subcutaneously. […] Additionally, of the 30 patients who had received treatment for at least 6 months, 10 experienced a decrease in tumor size.

[6] = system: brain tumor in metastatic patients; test: Clinical study: metastatic patients, brain tumor size by MRI and survival; format: in vivo, human; settings: 2 mg/day s.c.
[7] = low dose of CRF, 30 μg/kg s.c. twice daily
[8] = CRF 100 or 200 μg/kg twice daily, subcutaneous
[9] = of the 3 metastatic patients of FIG. 10
[10] = bevacizumab 5 mg/kg twice weekly, intraperitoneal

Molecule: Cn1nnc2c(C(N)=O)ncn2c1=O [TMZ, temozolomide, reference compound]
- mice still alive at the end of the 80-day study period ([1]; TMZ 40 mg/kg intraperitoneally 5 days/week): 40%

Molecule: O=NN(CCCl)C(=O)NCCCl [BiCNU, carmustine, reference compound]
- brain tumor progression (photon emission) ([1]; BiCNU 20 mg/kg intraperitoneally 5 days/week): continued to grow

Molecule: corticorelin acetate [CRF]
- brain tumor progression (photon emission) [1, 7]: did not progress or progressed more slowly
- mean survival time (comparison) [1, 7]: between mice, that were administered a high dose of CRF, and mice that had received no treatment or were administered dexamethasone
- mice still alive at the end of the 80-day study period [1, 7]: 60%
- survival compared with untreated, dexamethasone or chemotherapeutic agents [1, 7]: survived longer
- tumor volume compared to control [2, 8]: reduction in tumor volume
- tumor volume compared to control [3, 8]: reduction in tumor volume
- tumor volume compared to control [4, 8]: reduction in tumor volume
- survival after CRF treatment, some patients ([5]; FIGS. 8 and 9): 1-2 years
- patients exhibiting a reduction in tumor size at the last time point measured ([5]; of the 10 patients of FIG. 9, 2 mg/day s.c.): 8 patients
- patients exhibiting a reduction in tumor size ([5]; of the 20 patients of FIG. 8, 2 mg/day (1 mg twice daily) s.c.): 6 patients
- patients exhibiting a maintenance in tumor size ([5]; of the 20 patients of FIG. 8, 2 mg/day s.c.): 5 patients
- patients exhibiting a reduction in tumor size by over 50% ([5]; of the 20 patients of FIG. 8, after 9 months of treatment, 2 mg/day s.c.): 3 patients
- patients experiencing a decrease in tumor size ([5]; of the 30 patients treated for at least 6 months, 2 mg/day s.c.): 10 patients
- survival of the overwhelming majority of patients ([5]; projected survival 3-6 months, FIGS. 8 and 9): live well beyond the projected 3-6 months
- reduction in tumor size ([5]; two of the patients, 2 mg/day s.c.): around 90%
- response of metastatic patients to treatment [6]: responded very favorably
- metastatic patients exhibiting survival beyond the projected 3-6 months [6, 9]: 3 patients
- metastatic patients showing a reduction in tumor size at the last timepoint measured [6, 9]: 2 patients

Molecule: bevacizumab (Avastin®): angiogenesis inhibitor bevacizumab (Avastin®) [reference compound]
- tumor volume compared to control [2, 10]: reduction in tumor volume
- tumor volume compared to control [3, 10]: reduction in tumor volume
- tumor volume compared to control [4, 10]: reduction in tumor volume
